# Assay results from ChEMBL document CHEMBL1201862, “PubChem BioAssay data set” (2004).
#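 Each compound was tested at five concentrations against cells in 96-well plates for 48 hours. GI50 is the concentration that inhibits growth by half.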 Calls of active or inactive are those of the source. No stated cut-off is given here; in the data, active = GI50 up to about 1.1 µM and inactive = higher.
# Columns and labels:
# Assay in all cases: NCI anticancer screen, dose series, 48 h
# DU-145 = test system: DU-145
# UACC-62 = test system: UACC-62
# ACHN = test system: ACHN
# SW-620 = test system: SW-620
# SNB-75 = test system: SNB-75
# BT-549 = test system: BT-549
# A549 = test system: A549
# HCT-15 = test system: HCT-15
# SK-MEL-2 = test system: SK-MEL-2
# Hs-578T = test system: Hs-578T
# MDA-MB-435 = test system: MDA-MB-435
# OVCAR-5 = test system: OVCAR-5
# HCC 2998 = test system: HCC 2998
# NCI/ADR-RES = test system: NCI/ADR-RES
# SK-OV-3 = test system: SK-OV-3
# HOP-92 = test system: HOP-92
# SF-295 = test system: SF-295
# LOX IMVI = test system: LOX IMVI
# CCRF-CEM = test system: CCRF-CEM
# RPMI-8226 = test system: RPMI-8226
SMILES,GI50 (DU-145),GI50 (UACC-62),GI50 (ACHN),GI50 (SW-620),GI50 (SNB-75),GI50 (BT-549),GI50 (A549),GI50 (HCT-15) [µM],GI50 (SK-MEL-2),GI50 (Hs-578T),GI50 (MDA-MB-435),GI50 (OVCAR-5),GI50 (HCC 2998),GI50 (NCI/ADR-RES),GI50 (SK-OV-3),GI50 (HOP-92),GI50 (SF-295),GI50 (LOX IMVI),GI50 (CCRF-CEM),GI50 (RPMI-8226)
CN(C)Cc1cc(/N=N/c2ccc(Cl)cc2)ccc1O,25.1 µM (inactive),16 µM (inactive),15.3 µM (inactive),16.4 µM (inactive),14.9 µM (inactive),10.7 µM (inactive),16 µM (inactive),15.1,21.3 µM (inactive),15 µM (inactive),16.7 µM (inactive),12.1 µM (inactive),14.6 µM (inactive),17.7 µM (inactive),18.7 µM (inactive),4.46 µM (inactive),16.5 µM (inactive),11.4 µM (inactive),17.8 µM (inactive),> 10 µM (inactive)
Cc1ccc(/C=N/Nc2nncc3ccccc23)s1,> 31.6 µM (inactive),> 52.1 µM (inactive),> 100 µM (inactive),> 100 µM (inactive),> 44.2 µM (inactive),> 55.8 µM (inactive),> 100 µM (inactive),> 100,> 95.3 µM (inactive),35.6 µM (inactive),97.1 µM (inactive),> 100 µM (inactive),> 72.8 µM (inactive),48 µM (inactive),> 84.1 µM (inactive),> 100 µM (inactive),35.9 µM (inactive),> 61.2 µM (inactive),> 100 µM (inactive),> 100 µM (inactive)
CCOc1cc(NC(C)=O)ccc1C(=O)NNC(=O)c1ccccc1OC(C)=O,8.28 µM (inactive),8.36 µM (inactive),3.79 µM (inactive),4.01 µM (inactive),8.05 µM (inactive),19.5 µM (inactive),6.76 µM (inactive),4.37,24.3 µM (inactive),> 52 µM (inactive),15 µM (inactive),10.2 µM (inactive),4.95 µM (inactive),17.7 µM (inactive),11.8 µM (inactive),29.9 µM (inactive),8.36 µM (inactive),5.45 µM (inactive),4.22 µM (inactive),3 µM (inactive)
NC(C(F)(F)F)(C(F)(F)F)P(=O)(c1ccccc1)c1ccccc1,> 100 µM (inactive),> 100 µM (inactive),> 100 µM (inactive),> 100 µM (inactive),> 100 µM (inactive),> 100 µM (inactive),> 100 µM (inactive),> 100,> 100 µM (inactive),> 100 µM (inactive),> 100 µM (inactive),> 100 µM (inactive),> 100 µM (inactive),> 100 µM (inactive),> 100 µM (inactive),> 100 µM (inactive),> 100 µM (inactive),> 100 µM (inactive),> 100 µM (inactive),> 100 µM (inactive)
CCC(C)[C@H](NC(=O)[C@H](Cc1ccccc1)NC(=O)N(CC)c1ccccc1)C(=O)N[C@@H](CC(C)C)C(=O)OC (stereo not given in full),33.9 µM (inactive),48 µM (inactive),25.6 µM (inactive),31.6 µM (inactive),70.5 µM (inactive),33.5 µM (inactive),52.5 µM (inactive),38.6,36.6 µM (inactive),63.1 µM (inactive),24 µM (inactive),> 100 µM (inactive),42.2 µM (inactive),> 100 µM (inactive),> 100 µM (inactive),40.7 µM (inactive),59.7 µM (inactive),30.9 µM (inactive),21.4 µM (inactive),8.93 µM (inactive)
COc1ccc2c(c1)C1Oc3ccccc3CC1CO2 (stereo not given),> 100 µM (inactive),98.2 µM (inactive),60.1 µM (inactive),63.1 µM (inactive),28.4 µM (inactive),52.2 µM (inactive),55.3 µM (inactive),34.1,21.5 µM (inactive),34 µM (inactive),47 µM (inactive),> 100 µM (inactive),19.7 µM (inactive),42.1 µM (inactive),97.5 µM (inactive),25.2 µM (inactive),76.4 µM (inactive),47.2 µM (inactive),> 100 µM (inactive),25.6 µM (inactive)
Nc1cccc(C2CCCc3c2[nH]c2ccccc32)c1 (stereo not given),27 µM (inactive),15.6 µM (inactive),25 µM (inactive),17.4 µM (inactive),11.9 µM (inactive),18.4 µM (inactive),17.5 µM (inactive),8.28,17.5 µM (inactive),16 µM (inactive),17.3 µM (inactive),16.3 µM (inactive),22.6 µM (inactive),17.7 µM (inactive),23.9 µM (inactive),16.9 µM (inactive),20.8 µM (inactive),12.4 µM (inactive),15.3 µM (inactive),19.1 µM (inactive)
[N-]=[N+]=Nc1ccc2c(c1)Sc1ccccc1N2CCCCN1CCN(C(=O)CCNC(=O)Cc2ccc(C(=O)c3ccccc3)cc2)CC1,4.93 µM (inactive),6.05 µM (inactive),3.61 µM (inactive),9.66 µM (inactive),5.21 µM (inactive),5.06 µM (inactive),4.52 µM (inactive),2.64,4.29 µM (inactive),17.7 µM (inactive),2.2 µM (inactive),6.53 µM (inactive),2.53 µM (inactive),4.05 µM (inactive),27.9 µM (inactive),6.71 µM (inactive),3.78 µM (inactive),2.23 µM (inactive),1.79 µM (inactive),1.58 µM (inactive)
O=C1CC(Nc2ccccc2)c2c(Cl)sc(Cl)c21 (stereo not given),1.6 µM (inactive),1.32 µM (inactive),1.18 µM (inactive),0.369 µM (active),2.31 µM (inactive),2.22 µM (inactive),2.05 µM (inactive),0.767,1.89 µM (inactive),2.42 µM (inactive),1.52 µM (inactive),2.34 µM (inactive),1.76 µM (inactive),2.42 µM (inactive),13.4 µM (inactive),1.41 µM (inactive),5.11 µM (inactive),0.39 µM (active),0.127 µM (active),< 0.01 µM (active)
COC(=O)/C=C\C(C#N)(C#N)/N=C/c1ccccc1,17.1 µM (inactive),14.5 µM (inactive),2.3 µM (inactive),1.46 µM (inactive),6.35 µM (inactive),5.2 µM (inactive),17.8 µM (inactive),2.92,16.7 µM (inactive),12.2 µM (inactive),2.33 µM (inactive),19 µM (inactive),19.4 µM (inactive),2.88 µM (inactive),18.3 µM (inactive),1.55 µM (inactive),18.7 µM (inactive),2.32 µM (inactive),0.337 µM (active),0.573 µM (active)
